Experimental data published in patent US12692223B2, “Phenyl-sulfamoyl-benzoic acid derivatives as ERAP1-modulators” (GREY WOLF THERAPEUTICS LIMITED, priority 2021, dated 2026).
pIC50: −log10 of the molar value.

target: T1, ERAP1 (Homo sapiens, UniProt Q9NZ08); assay: ERAP1 mediated hydrolysis of an amide substrate measured in a biochemical system (10-mer inhibition assay); conditions: purified ERAP1(37-941)-10His; 10-mer substrate; 23° C. for 1 h; excitation 279 nm, emission 355 nm; read-out: IC50 vs Decapeptide WRVYEKC(Dnp)ALK-acid (where Dnp is Dinitrophenyl maleimide) (10-mer)
T1 construct: Purified ERAP1(37-941)-10His (ERAP1)
Procedure: Biological Assay 1: ERAP1 Mediated Hydrolysis of an Amide Substrate Measured in a Biochemical System
• 1× Assay buffer (AB): 25 mM Bis-tris propane, 0.05% w/v • Hydroxypropylmethylcellulose pH 7.75 made with Optima grade water • Decapeptide WRVYEKC(Dnp)ALK-acid (where Dnp is Dinitrophenyl maleimide) (10-mer) • L-Leucine 7-amido-4-methylcoumarin (L-AMC) • Purified ERAP1(37-941)-10His (ERAP1) Assay Procedure:
12.5 μL ERAP1 enzyme in 1×AB was combined with 250 nL test compound in DMSO. 12.5 μL of either 240 μM L-AMC in 1×AB or 100 μM 10-mer in 1×AB was added to the reaction and incubated at 23° C. for 1 h. For detection, plates were read at excitation 365 nm and emission 442 nm (L-AMC) or excitation 279 nm and emission 355 nm (10-mer). Compound IC50 was determined using a 4-parameter equation.

T1 sequence (Q9NZ08 37-941): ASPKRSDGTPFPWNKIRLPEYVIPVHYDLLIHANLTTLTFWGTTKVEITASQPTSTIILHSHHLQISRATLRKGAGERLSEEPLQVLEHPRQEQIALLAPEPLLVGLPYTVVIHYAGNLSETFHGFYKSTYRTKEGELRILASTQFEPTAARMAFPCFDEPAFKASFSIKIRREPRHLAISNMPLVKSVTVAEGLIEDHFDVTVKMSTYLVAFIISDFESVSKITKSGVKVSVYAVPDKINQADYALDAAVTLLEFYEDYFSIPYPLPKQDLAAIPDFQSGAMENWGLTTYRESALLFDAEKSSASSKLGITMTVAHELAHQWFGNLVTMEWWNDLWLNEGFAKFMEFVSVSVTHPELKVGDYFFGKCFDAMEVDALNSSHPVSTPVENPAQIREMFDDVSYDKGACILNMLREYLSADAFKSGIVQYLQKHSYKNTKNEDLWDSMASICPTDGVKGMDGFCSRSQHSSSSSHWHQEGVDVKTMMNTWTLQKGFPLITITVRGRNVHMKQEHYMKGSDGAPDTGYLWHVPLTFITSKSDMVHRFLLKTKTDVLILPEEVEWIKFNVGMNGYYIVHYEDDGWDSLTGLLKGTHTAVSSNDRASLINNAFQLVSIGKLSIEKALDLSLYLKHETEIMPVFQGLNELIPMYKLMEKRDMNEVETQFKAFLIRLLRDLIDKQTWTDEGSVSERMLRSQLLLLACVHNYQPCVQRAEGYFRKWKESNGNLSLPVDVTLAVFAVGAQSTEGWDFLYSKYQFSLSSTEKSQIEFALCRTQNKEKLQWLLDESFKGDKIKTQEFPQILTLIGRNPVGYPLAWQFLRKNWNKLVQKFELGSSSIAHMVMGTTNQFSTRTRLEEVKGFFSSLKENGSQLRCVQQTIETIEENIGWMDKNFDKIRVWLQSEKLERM

CC1CC(Oc2cc(Cl)c(C#N)cc2NS(=O)(=O)c2cc(C(=O)O)ccc2C2CC2)C1 (mixture of isomers) [Example 88, 3-(N-(4-chloro-5-cyano-2-(3-methylcyclobutoxy)phenyl)sulfamoyl)-4-cyclopropylbenzoic acid] and CC1CC(COc2cc(Cl)c(C#N)cc2NS(=O)(=O)c2cc(C(=O)O)ccc2C2CC2)C1 (mixture of isomers) [Example 89, 3-(N-(4-chloro-5-cyano-2-((3-methylcyclobutyl)methoxy)phenyl)sulfamoyl)-4-cyclopropylbenzoic acid] cannot be ordered by pIC50: over 9.00 for the first, over 9.00 for the second.

N#Cc1cc(NS(=O)(=O)c2cc(C(=O)O)ccc2C2CC2)c(OC2CCC2C2CC2)cc1Cl (mixture of isomers) [Example 108, 3-(N-(4-chloro-5-cyano-2-(2-cyclopropylcyclobutoxy)-phenyl)sulfamoyl)-4-cyclopropylbenzoic acid] and N#Cc1cc(NS(=O)(=O)c2cc(C(=O)O)ccc2C2CC2)c(OC2CCC2O)cc1Cl (racemic) [Example 113, 3-(N-(4-chloro-5-cyano-2-(cis-2-hydroxycyclobutoxy)phenyl)sulfamoyl)-4-cyclopropylbenzoic acid] cannot be ordered by pIC50: over 9.00 for the first, over 9.00 for the second.

COC1CCC(Oc2cc(Cl)c(C#N)cc2NS(=O)(=O)c2cc(C(=O)O)ccc2C2CC2)C1 (mixture of isomers) [Example 124, 3-(N-(4-chloro-5-cyano-2-((3-methoxycyclopentyl)oxy)phenyl)sulfa-moyl)-4-cyclopropylbenzoic acid] and N#Cc1cc(NS(=O)(=O)c2cc(C(=O)O)ccc2C2CC2)c(OC2CCC(O)C2)cc1Cl (racemic) [Example 110, 3-(N-(4-chloro-5-cyano-2-((cis-3-hydroxycyclopentyl)oxy)phenyl)sulfa-moyl)-4-cyclopropylbenzoic acid] cannot be ordered by pIC50: over 9.00 for the first, over 9.00 for the second.

N#Cc1cc(NS(=O)(=O)c2cc(C(=O)O)ccc2C2CC2)c(OC2CCCC2O)cc1Cl (racemic) [Example 59, 3-(N-(4-chloro-5-cyano-2-((trans-2-hydroxycyclopentyl)oxy)phenyl)sulfamoyl)-4-cyclopropylbenzoic acid] and N#Cc1cc(NS(=O)(=O)c2cc(C(=O)O)ccc2C2CC2)c(OC2CCC2O)cc1Cl (racemic) [Example 118, 3-(N-(4-chloro-5-cyano-2-(trans-2-hydroxycyclobutoxy)phenyl)sulfamoyl)-4-cyclopropylbenzoic acid] cannot be ordered by pIC50: over 9.00 for the first, over 9.00 for the second.

Compared with N#Cc1cc(NS(=O)(=O)c2cc(C(=O)O)ccc2C2CC2)c(OC2CCC(C#N)C2)cc1Cl (racemic) [Example 72, 3-(N-(4-chloro-5-cyano-2-((trans-3-cyanocyclopentyl)oxy)phenyl)sulfamoyl)-4-cyclopropylbenzoic acid], N#Cc1cc(NS(=O)(=O)c2cc(C(=O)O)ccc2C2CC2)c(OC2CCC(O)C2)cc1Cl (racemic) [Example 111, 3-(N-(4-chloro-5-cyano-2-((trans-3-hydroxycyclopentyl)oxy)phenyl)sulfa-moyl)-4-cyclopropylbenzoic acid] is lower in pIC50: over 9.00 for the first, 8.30 to 9.00 for the second.

N#Cc1cc(NS(=O)(=O)c2cc(C(=O)O)ccc2C2CC2)c(OC2CCC(C#N)C2)cc1Cl (racemic) [Example 74, 3-(N-(4-chloro-5-cyano-2-((cis-3-cyanocyclopentyl)oxy)phenyl)sulfamoyl)-4-cyclopropylbenzoic acid] and N#Cc1cc(NS(=O)(=O)c2cc(C(=O)O)ccc2C2CC2)c(OC2CCCC2F)cc1Cl (racemic) [Example 86, 3-(N-(4-chloro-5-cyano-2-((trans-2-fluorocyclopentyl)oxy)phenyl)sulfamoyl)-4-cyclopropylbenzoic acid] cannot be ordered by pIC50: over 9.00 for the first, over 9.00 for the second.

C#CC1CCCC1Oc1cc(Cl)c(C#N)cc1NS(=O)(=O)c1cc(C(=O)O)ccc1C1CC1 (racemic) [Example 84, 3-(N-(4-chloro-5-cyano-2-((trans-2-ethynylcyclopentyl)oxy)phenyl)sulfamoyl)-4-cyclopropylbenzoic acid] and CC1CCCC1Oc1cc(Cl)c(C#N)cc1NS(=O)(=O)c1cc(C(=O)O)ccc1C1CC1 (racemic) [Example 90, 3-(N-(4-chloro-5-cyano-2-((trans-2-methylcyclopentyl)oxy)phenyl)sulfamoyl)-4-cyclopropylbenzoic acid] cannot be ordered by pIC50: over 9.00 for the first, over 9.00 for the second.

COC1CCCC1Oc1cc(Cl)c(C#N)cc1NS(=O)(=O)c1cc(C(=O)O)ccc1C1CC1 (racemic) [Example 85, 3-(N-(4-chloro-5-cyano-2-((trans-2-methoxycyclopentyl)oxy)phenyl)sulfamoyl)-4-cyclopropylbenzoic acid] and COC1CCC1Oc1cc(Cl)c(C#N)cc1NS(=O)(=O)c1cc(C(=O)O)ccc1C1CC1 (racemic) [Example 119, 3-(N-(4-chloro-5-cyano-2-(trans-2-methoxycyclobutoxy)phenyl)sulfamoyl)-4-cyclopropylbenzoic acid] cannot be ordered by pIC50: over 9.00 for the first, over 9.00 for the second.

N#Cc1cc(NS(=O)(=O)c2cc(C(=O)O)ccc2C2CC2)c(OC2CCCC2O)cc1Cl (racemic) [Example 98, 3-(N-(4-chloro-5-cyano-2-((cis-2-hydroxycyclopentyl)oxy)phenyl)sulfamoyl)-4-cyclopropylbenzoic acid] and CC1CCCC1Oc1cc(Cl)c(C#N)cc1NS(=O)(=O)c1cc(C(=O)O)ccc1C1CC1 (racemic) [Example 105, 3-(N-(4-chloro-5-cyano-2-((cis-2-methylcyclopentyl)oxy)-phenyl)sulfamoyl)-4-cyclopropylbenzoic acid] cannot be ordered by pIC50: over 9.00 for the first, over 9.00 for the second.

COC1CCCC1Oc1cc(Cl)c(C#N)cc1NS(=O)(=O)c1cc(C(=O)O)ccc1C1CC1 (racemic) [Example 102, 3-(N-(4-chloro-5-cyano-2-((cis-2-methoxycyclopentyl)oxy)phenyl)sulfa-moyl)-4-cyclopropylbenzoic acid] and COC1CCC1Oc1cc(Cl)c(C#N)cc1NS(=O)(=O)c1cc(C(=O)O)ccc1C1CC1 (racemic) [Example 137, 3-(N-(4-chloro-5-cyano-2-(cis-2-methoxycyclobutoxy)phenyl)sulfamoyl)-4-cyclopropylbenzoic acid] cannot be ordered by pIC50: over 9.00 for the first, over 9.00 for the second.

First: N#Cc1cc(NS(=O)(=O)c2cc(C(=O)O)ccc2C2CC2)c(OC2CCC23CCC3)cc1Cl (single isomer, unassigned) [Example 91, 3-(N-(4-chloro-5-cyano-2-(spiro[3.3]heptan-1-yloxy)phenyl)sulfamoyl)-4-cyclopropylbenzoic acid]
Second: N#Cc1cc(NS(=O)(=O)c2cc(C(=O)O)ccc2C2CC2)c(OC2CCC23CC3)cc1Cl (single isomer, unassigned) [Example 106, 3-(N-(4-chloro-5-cyano-2-(spiro[2.3]hexan-4-yloxy)phenyl)-sulfamoyl)-4-cyclopropylbenzoic acid]
The pIC50 of the first is lower: 8.30 to 9.00 for the first, over 9.00 for the second.

N#Cc1cc(NS(=O)(=O)c2cc(C(=O)O)ccc2C2CC2)c(OC2CCC23CCC3)cc1Cl (single isomer, unassigned) [Example 92, 3-(N-(4-chloro-5-cyano-2-(spiro[3.3]heptan-1-yloxy)phenyl)sulfamoyl)-4-cyclopropylbenzoic acid] and N#Cc1cc(NS(=O)(=O)c2cc(C(=O)O)ccc2C2CC2)c(OC2CCC23CC3)cc1Cl (single isomer, unassigned) [Example 107, 3-(N-(4-chloro-5-cyano-2-(spiro[2.3]hexan-4-yloxy)phenyl)-sulfamoyl)-4-cyclopropylbenzoic acid] cannot be ordered by pIC50: over 9.00 for the first, over 9.00 for the second.

First: CC1(C)CCC1Oc1cc(Cl)c(C#N)cc1NS(=O)(=O)c1cc(C(=O)O)ccc1C1CC1 (single isomer, unassigned) [Example 93, 3-(N-(4-chloro-5-cyano-2-(2,2-dimethylcyclobutoxy)phenyl)-sulfamoyl)-4-cyclopropylbenzoic acid]
Second: CC1CCCC1Oc1cc(Cl)c(C#N)cc1NS(=O)(=O)c1cc(C(=O)O)ccc1C1CC1 (single isomer, unassigned) [Example 99, 3-(N-(4-chloro-5-cyano-2-((trans-2-methylcyclopentyl)oxy)-phenyl)sulfamoyl)-4-cyclopropylbenzoic acid]
The pIC50 of the first is lower: 8.30 to 9.00 for the first, over 9.00 for the second. The second is the more potent here.

CC1(C)CCC1Oc1cc(Cl)c(C#N)cc1NS(=O)(=O)c1cc(C(=O)O)ccc1C1CC1 (single isomer, unassigned) [Example 94, 3-(N-(4-chloro-5-cyano-2-(2,2-dimethylcyclobutoxy)phenyl)-sulfamoyl)-4-cyclopropylbenzoic acid] and CC1CCCC1Oc1cc(Cl)c(C#N)cc1NS(=O)(=O)c1cc(C(=O)O)ccc1C1CC1 (single isomer, unassigned) [Example 100, 3-(N-(4-chloro-5-cyano-2-((trans-2-methylcyclopentyl)oxy)-phenyl)sulfamoyl)-4-cyclopropylbenzoic acid] cannot be ordered by pIC50: over 9.00 for the first, over 9.00 for the second.

For COC1CCCC1Oc1cc(Cl)c(C#N)cc1NS(=O)(=O)c1cc(C(=O)O)ccc1C1CC1 (single isomer, unassigned) [Example 103, 3-(N-(4-chloro-5-cyano-2-((trans-2-methoxycyclopentyl)-oxy)phenyl)sulfamoyl)-4-cyclopropylbenzoic acid], the pIC50 was over 9.00.
For COC1CCCC1Oc1cc(Cl)c(C#N)cc1NS(=O)(=O)c1cc(C(=O)O)ccc1C1CC1 (single isomer, unassigned) [Example 104, 3-(N-(4-chloro-5-cyano-2-((trans-2-methoxycyclopentyl)-oxy)phenyl)sulfamoyl)-4-cyclopropylbenzoic acid], the pIC50 was under 8.30.
